# According to ChEMBL document CHEMBL6078688, “Discovery of Novel MyD88 Inhibitor A5S to Alleviate Acute Lung Injury with Favorable Drug-like Properties” (J Med Chem, 2024):
# Calls of active or inactive are those of the source. No cut-off for these calls is given here.
# Tests used:
# THP-1 = experiment: Anti-inflammatory activity in LPS-induced human THP-1 cells assessed as inhibition of IL-6 production at 10 uM by ELISA relative to control; format: functional
# J774.A1 [1] = experiment: Cytotoxicity against mouse J774.A1 cells at 10 uM by MTT assay; format: toxicity, cell-based; settings: j774.a1, 10 µM
# [2] = target: Myeloid differentiation primary response protein MyD88 (Homo sapiens, UniProt Q99836); experiment: Binding affinity to MYD88 (unknown origin) assessed as dissociation constant by biolayer interferometry
# Sequence of Myeloid differentiation primary response protein MyD88 (Q99836 whole entry): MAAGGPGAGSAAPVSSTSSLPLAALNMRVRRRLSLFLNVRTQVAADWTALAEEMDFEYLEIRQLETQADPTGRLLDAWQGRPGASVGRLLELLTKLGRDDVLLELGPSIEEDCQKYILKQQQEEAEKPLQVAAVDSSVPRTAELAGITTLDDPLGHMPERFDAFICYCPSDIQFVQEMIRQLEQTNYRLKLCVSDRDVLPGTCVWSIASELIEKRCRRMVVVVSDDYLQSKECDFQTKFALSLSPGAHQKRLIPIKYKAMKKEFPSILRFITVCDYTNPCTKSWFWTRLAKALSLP
# Peritoneal macrophage = experiment: Antiinflammatory activity in LPS-induced mouse Peritoneal macrophage cells assessed as inhibition of IFN-beta mRNA level at 1.25 to 5 uM by RT-PCR analysis; format: functional, cell-based; settings: dose 1.25-5 µM
# J774.A1 [3] = experiment: Anti-inflammatory activity in LPS-induced mouse J774.A1 cells assessed as inhibition of TNF-alpha production at 10 uM by ELISA; format: functional, cell-based
# J774.A1 [4] = experiment: Anti-inflammatory activity in LPS-induced mouse J774.A1 cells assessed as inhibition of IL-6 production at 10 uM by ELISA; format: functional, cell-based
# [5] = Stability of compound in enzyme free simulated intestinal fluid measured upto 12 hrs; format: physicochemical; settings: simulated gi fluid
# [6] = Stability of compound in enzyme free simulated gastric fluid measured upto 12 hrs; format: physicochemical; settings: simulated gi fluid
# [7] = Cmax in Sprague-Dawley rat at 50 mg/kg,po administration measured upto 24 hrs by LC-MS/MS analysis; format: ADME, organism-based; settings: in vivo
# [8] = Stability of compound in simulated gastric fluid measured upto 12 hrs; format: physicochemical; settings: simulated gi fluid
# [9] = AUC (0 to t) in Sprague-Dawley rat at 1 mg/kg,iv administration measured upto 24 hrs by LC-MS/MS analysis; format: ADME, organism-based; settings: in vivo
# [10] = Stability of compound in rat serum measured after 6 hrs; format: ADME, cell-free
# [11] = AUC (0 to t) in Sprague-Dawley rat at 50 mg/kg,po administration measured upto 24 hrs by LC-MS/MS analysis; format: ADME, organism-based; settings: in vivo
# [12] = Oral bioavailability in Sprague-Dawley rat at 50 mg/kg administration measured upto 24 hrs by LC-MS/MS analysis; format: ADME, organism-based; settings: in vivo
# [13] = AUC (0 to infinity) in Sprague-Dawley rat at 1 mg/kg,iv administration measured upto 24 hrs by LC-MS/MS analysis; format: ADME, organism-based; settings: in vivo
# [14] = Cmax in Sprague-Dawley rat at 1 mg/kg,iv administration measured upto 24 hrs by LC-MS/MS analysis; format: ADME, organism-based; settings: in vivo
# [15] = Stability of compound in simulated intestinal fluid measured upto 12 hrs; format: physicochemical; settings: simulated gi fluid
# [16] = Tmax in Sprague-Dawley rat at 1 mg/kg,iv administration measured upto 24 hrs by LC-MS/MS analysis; format: ADME, organism-based; settings: in vivo
# [17] = Half life in Sprague-Dawley rat at 1 mg/kg,iv administration measured upto 24 hrs by LC-MS/MS analysis; format: ADME, organism-based; settings: in vivo
# [18] = Tmax in Sprague-Dawley rat at 50 mg/kg,po administration measured upto 24 hrs by LC-MS/MS analysis; format: ADME, organism-based; settings: in vivo
# [19] = Drug concentration in Sprague-Dawley rat serum at 15 mg/kg,iv administration measured upto 24 hrs by LC-MS/MS analysis; format: ADME, organism-based; settings: read-out: Ct
# Mus musculus [20] = experiment: Antiinflammatory activity against LPS induced acute lung injury C57BL/6 mouse model assessed as reduction in of leukocytes in alveolar region at 20 mg/kg,po administrated with compound for 30 mins followed by LPS treatment and measured after 6 hrs by immunohistochemical staining based analysis; format: functional, organism-based
# Mus musculus [21] = experiment: Antiinflammatory activity against LPS induced acute lung injury C57BL/6 mouse model assessed as reduction in histopathological change in lung at 20 mg/kg,po administrated with compound for 30 mins followed by LPS treatment and measured after 6 hrs by H and E staining based analysis; format: functional, organism-based; settings: time 6.5 hrs
# J774.A1 [22] = experiment: Anti-inflammatory activity in LPS-induced mouse J774.A1 cells assessed as inhibition of IL-6 production by ELISA; format: functional, cell-based
# J774.A1 [23] = experiment: Cytotoxicity against mouse J774.A1 cells at 3 to 12 uM by MTT assay; format: toxicity, cell-based; settings: j774.a1, 12 µM, dose 3-12 µM
# [24] = target: TLR4-MyD88 (Mus musculus) (UniProt Q9QUK6+P22366); experiment: Inhibition of MYD88/TLR4 protein-protein interaction in LPS-induced mouse J774.A1 cells at 20 uM incubated for 2 hrs by coimmunoprecipitation analysis; format: cell-based
# Sequence of TLR4-MyD88 (Mus musculus) (P22366 whole entry, looked up): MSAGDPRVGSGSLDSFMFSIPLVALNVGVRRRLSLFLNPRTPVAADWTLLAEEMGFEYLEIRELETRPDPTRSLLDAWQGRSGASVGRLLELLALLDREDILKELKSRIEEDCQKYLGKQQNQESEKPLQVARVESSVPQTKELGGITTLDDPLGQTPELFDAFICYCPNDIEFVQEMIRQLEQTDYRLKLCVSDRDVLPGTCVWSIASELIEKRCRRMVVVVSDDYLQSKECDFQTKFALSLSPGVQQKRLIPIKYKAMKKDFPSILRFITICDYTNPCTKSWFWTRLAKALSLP
# Sequence of TLR4-MyD88 (Mus musculus) (Q9QUK6 whole entry, looked up): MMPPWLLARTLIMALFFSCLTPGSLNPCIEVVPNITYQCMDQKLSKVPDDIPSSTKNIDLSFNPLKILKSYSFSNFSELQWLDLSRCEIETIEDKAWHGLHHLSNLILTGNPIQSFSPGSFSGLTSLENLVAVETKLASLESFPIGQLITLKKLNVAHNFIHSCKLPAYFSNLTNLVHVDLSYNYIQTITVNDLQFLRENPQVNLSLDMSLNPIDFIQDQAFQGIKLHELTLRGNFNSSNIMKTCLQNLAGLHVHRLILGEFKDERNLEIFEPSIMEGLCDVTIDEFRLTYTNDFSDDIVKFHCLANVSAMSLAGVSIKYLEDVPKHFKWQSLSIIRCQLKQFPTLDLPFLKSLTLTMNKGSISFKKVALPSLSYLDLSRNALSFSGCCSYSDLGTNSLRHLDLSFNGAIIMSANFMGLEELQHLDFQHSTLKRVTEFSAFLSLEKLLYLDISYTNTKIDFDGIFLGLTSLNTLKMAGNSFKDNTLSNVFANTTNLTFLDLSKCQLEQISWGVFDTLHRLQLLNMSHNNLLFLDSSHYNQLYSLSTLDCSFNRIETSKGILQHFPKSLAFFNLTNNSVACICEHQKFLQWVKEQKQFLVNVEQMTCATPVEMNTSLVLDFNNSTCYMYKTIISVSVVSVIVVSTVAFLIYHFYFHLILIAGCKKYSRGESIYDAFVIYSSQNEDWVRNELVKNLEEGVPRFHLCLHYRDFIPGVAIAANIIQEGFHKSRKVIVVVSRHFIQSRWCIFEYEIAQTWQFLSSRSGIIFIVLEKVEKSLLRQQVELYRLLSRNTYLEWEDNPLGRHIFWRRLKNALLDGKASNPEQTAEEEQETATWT
# J774.A1 [25] = experiment: Inhibition of NF-kappaB signalling pathway in LPS-induced mouse J774.A1 cells assessed as downregulation of p65 phosphorylation by Western blotting analysis; format: cell-based
# [26] = target: Toll-like receptor 4/Ly96 (Mus musculus) (UniProt Q9QUK6+Q9JHF9); experiment: Inhibition of MD2/TLR4 protein-protein interaction in LPS-induced mouse J774.A1 cells at 20 uM incubated for 2 hrs by coimmunoprecipitation analysis; format: cell-based
# J774.A1 [27] = experiment: Inhibition of NF-kappaB signalling pathway in LPS-induced mouse J774.A1 cells assessed as upregulation of IkappaB-alpha expression by Western blotting analysis; format: cell-based
# J774.A1 [28] = experiment: Anti-inflammatory activity in LPS-induced mouse J774.A1 cells assessed as inhibition of TNF-alpha production by ELISA; format: functional, cell-based
SMILES,inhibition at 10 µM (THP-1) [%],Activity (J774.A1 [1]),also measured
OC(COc1ccc(Br)cc1)CN1CCN(Cc2cc3ccccc3[nH]2)CC1 (stereo not given),84.2,Non-toxic,Kd [2]: 84.8 µM
COc1ccccc1OCC(O)CN1CCN(CC(O)C(C)c2cccc(F)c2)CC1 (stereo not given),52.8,Non-toxic,–
COc1ccc(C(=O)/C=C/c2cccc(OC)c2OC)cc1,–,–,Activity (Peritoneal macrophage): Active
COc1ccccc1OCC(O)CN1CCN(Cc2cc3ccccc3[nH]2)CC1 (stereo not given),62.6,Non-toxic,–
CC(c1ccccc1)C(O)CN1CCN(CC(O)COc2ccc(Br)cc2)CC1 (stereo not given),47.9,Non-toxic,–
Cc1c(CN2CCN(C3CCNC3)CC2)[nH]c2ccc(F)cc12 (stereo not given),71.7,Non-toxic,inhibition (J774.A1 [3]): Active; inhibition (J774.A1 [4]): Active; Kd [2]: 276 µM
CC(c1cccc(F)c1)C(O)CN1CCN(CC(O)COc2ccccc2)CC1 (stereo not given),31.8,Non-toxic,–
CC(c1ccccc1)C(O)CN1CCN(CC(O)COc2ccc(C(C)(C)C)cc2)CC1 (stereo not given),46.4,Toxic,–
COc1ccc(-c2csc(NC(=O)CCN3CCN(Cc4cccc([N+](=O)[O-])c4)CC3)n2)cc1OC,–,–,Stability [5]: Stable; Stability [6]: Stable; Cmax [7]: 3.99 ng/mL; Stability [8]: Stable; AUC(0-t) at 24 h [9]: 79.1 ng·h/mL; Stability [10]: Unstable; AUC(0-t) at 24 h [11]: 4.38 ng·h/mL; bioavailability [12]: 0.13%; AUC(0-inf) [13]: 79.9 ng·h/mL; Cmax [14]: 297 ng/mL; Stability [15]: Stable; Tmax [16]: 4.8 min; half-life [17]: 4.8 min; Tmax [18]: 15 min
CC(c1ccccc1)C(O)CN1CCN(CC(O)COCc2ccccc2)CC1 (stereo not given),20,Non-toxic,–
OC(COc1ccccc1)CN1CCN(Cc2cc3ccccc3[nH]2)CC1 (stereo not given),74,Non-toxic,–
COc1ccccc1OCC(O)CN1CCN(CC(O)C(C)c2ccccc2)CC1 (stereo not given),27.8,Non-toxic,–
Cc1ccccc1OCC(O)CN1CCN(CC(O)C(C)c2ccccc2)CC1 (stereo not given),21.5,Non-toxic,–
Cc1ccccc1OCC(O)CN1CCN(Cc2cc3ccccc3[nH]2)CC1 (stereo not given),75.4,Non-toxic,–
COc1ccc(OCC(O)CN2CCN(CC(O)C(C)c3ccccc3)CC2)cc1 (stereo not given),46.8,Non-toxic,–
CC(c1ccccc1)C(O)CN1CCN(CC(O)COc2ccccc2)CC1 (stereo not given),30.5,Non-toxic,–
CC(c1cccc(F)c1)C(O)CN1CCN(CC(O)COc2ccc(C(C)(C)C)cc2)CC1 (stereo not given),44.3,Non-toxic,–

SMILES,inhibition at 10 µM (THP-1) [%],Activity (J774.A1 [1]),also measured
COc1ccc(OCC(O)CN2CCN(CC(O)C(C)c3cccc(F)c3)CC2)cc1 (stereo not given),37.8,Non-toxic,–
OC(COCc1ccccc1)CN1CCN(Cc2cc3ccccc3[nH]2)CC1 (stereo not given),72.7,Non-toxic,–
OC(COc1ccc(F)cc1)CN1CCN(Cc2cc3ccccc3[nH]2)CC1 (stereo not given),76.3,Non-toxic,–
OC(COc1ccc(Cl)cc1)CN1CCN(Cc2cc3ccccc3[nH]2)CC1 (stereo not given),85.3,Non-toxic,–
CC(c1ccccc1)C(O)CN1CCN(CC(O)COc2ccc(Cl)cc2)CC1 (stereo not given),14,Non-toxic,–
CC(c1cccc(F)c1)C(O)CN1CCN(CC(O)COc2ccc(Br)cc2)CC1 (stereo not given),43.1,Non-toxic,–
CC(C)(C)c1ccc(OCC(O)CN2CCN(Cc3cc4ccccc4[nH]3)CC2)cc1 (stereo not given),5.83,Toxic,–
O=C(CCN1CCN(Cc2ccccc2)CC1)Nc1nc(-c2ccccc2)cs1,–,–,concentration at 24 h [19]: 1190 ng/mL
CC(c1cccc(F)c1)C(O)CN1CCN(CC(O)COCc2ccccc2)CC1 (stereo not given),30.4,Non-toxic,–
CC(c1cccc(F)c1)C(O)CN1CCN(CC(O)COc2ccc(F)cc2)CC1 (stereo not given),42.1,Non-toxic,–
Cc1ccccc1OCC(O)CN1CCN(CC(O)C(C)c2cccc(F)c2)CC1 (stereo not given),46.2,Non-toxic,–
C[C@@H]1C[C@H]2[C@@H]3CCC4=CC(=O)C=C[C@]4(C)[C@@]3(F)[C@@H](O)C[C@]2(C)[C@@]1(O)C(=O)CO,–,–,Activity (Mus musculus [20]): Active; Activity (Mus musculus [21]): Active
CC(c1ccccc1)C(O)CN1CCN(CC(O)COc2ccc(F)cc2)CC1 (stereo not given),4.5,Non-toxic,–
CC(c1cccc(F)c1)C(O)CN1CCN(CC(O)COc2ccc(Cl)cc2)CC1 (stereo not given),55.5,Non-toxic,–
O[C@@H](COc1ccc(Br)cc1)CN1CCN(Cc2cc3ccccc3[nH]2)CC1,–,–,IC50 (J774.A1 [22]): 0.82 µM; Activity (J774.A1 [23]): Non-toxic; inhibition [24]: Active; inhibition (J774.A1 [25]): Active; inhibition [26]: inactive; inhibition (J774.A1 [27]): Active; IC50 (J774.A1 [28]): 3.75 µM
COc1ccc(OCC(O)CN2CCN(Cc3cc4ccccc4[nH]3)CC2)cc1 (stereo not given),69,Non-toxic,–
